Entries after “also recorded” stand apart in the source; their conditions may differ.

One may read the IC50 as the concentration that gives 50% inhibition. As a reminder, the Cmax is the maximum level reached in the sampled fluid or tissue.

One series deals with DENV-3. Briefly: Inhibition of DENV replication in Huh-7 cells, viral RNA by quantitative real time PCR. The settings on record: Dengue virus, DENV3, Huh-7, 48 h, mean ± SD of 3 experiments. It counts as cell-based, dengue virus. The method, then:
^a Each experiment was done in duplicate. The mean and standard deviation shown represent 3 independent (different date) experiments for each virus tested. Huh-7 cells were plated in 96-well plate at 10,000 cells/well in DMEM containing 10 % FBS in 100 μl volume one day prior to set up of the assay. The following day the medium was aspirated off and diluted virus at a multiplicity of infection of 0.5 or media was added to the assay and control wells, respectively. The virus was allowed to attach to the cells for two hours at 37°C in a humidified 5% C02 atmosphere while the dilutions of the test molecule were prepared. Test molecules (or medium as a control) were added after aspiration of the virus-containing media 2 hours post-infection in 3-fold dilutions at a final DMSO concentration of 1%. After 48 hrs, cells were washed and cellular RNA were isolated. In this study, we used a quantitative real time PCR method to quantitate dengue viral RNA in Huh-7 in the presence of inhibitors. Viral RNA and endogenous 18S rRNA control (Applied Bio System) was quantified by a real time PCR assay using the following primers. Dengue Reverse (Common to all the serotypes): 5’-[…]-3’, Dengue forward serotype 1: 5’-[…]-3’, Dengue forward serotype 2 or 3: 5’-[…]-3’, Dengue forward serotype 4: 5’-[…] -3’ and Dengue probe (Common to all the serotypes): 5'-/56-FAM/[…]/3BHQ_1/-3'. Taqman was performed in duplicate. IC50 was obtained using the following calculations. First ΔCt was calculated by subtracting 18S rRNA CT value from dengue RNA CT value. ΔCts from duplicate taqman assay were averaged. Then ΔΔCt was obtained by subtracting the average ΔCt of non-treated sample from the treated sample average ΔCt. Relative quantification was calculated using the following formula. Relative quantification = 2^-averageΔΔCT. The 50% inhibitory concentrations (EC50) were calculated using the sigmoidal dose-response model in Microsoft XLfit.
Background: Quantitative PCR measures a nucleic acid by following its amplification.

The conditions of series [1]: 4500 mg twice daily of balapiravir, HCV-infected persons, cited from earlier work.
Series [2] can be described thus: Host immune response (plasma cytokines, whole blood transcripts) and virus sequence diversity in adult dengue patients. Format: in vivo, human. The method, then: Plasma samples were collected for virological and immunological investigations every 12 hours, beginning immediately before commencement of treatment, during the next 6 study days and on one occasion on study day 7 and day 14 (virological markers) or day 7 and day 28 (immunological markers). Viremia was measured using a validated, internally controlled reverse-transcription polymerase chain reaction assay in a Good Clinical Laboratory Practice environment. The limit of detection was 357 copies/mL for DENV-1, 72 copies/mL for DENV-2, 357 copies/mL for DENV-3, and 720 copies/mL for DENV-4. The presence of NS1 in plasma was determined using the Platelia NS1 assay (Bio-Rad) and was performed according to the manufacturer's instructions. Plasma cytokine levels (interleukin 1β [IL-1β], IL-2, IL-4, IL-5, IL-6, IL-10, IL-12p70, IL-13, interferon γ [IFN-γ], and tumor necrosis factor α [TNF-α]) were measured using a Bio-Plex human cytokine assay (Bio-Rad) and a multiplex array reader (Luminex Systems, Bio-Plex workstation from Bio-Rad Laboratories) according to the manufacturer's instructions. Briefly, 50-μL plasma samples were incubated with monoclonal antibody coupled beads. […] Cytokine concentrations in samples were calculated by use of recombinant cytokines as standards and software provided by the manufacturer (Bio-Plex Manager). […]

In a further series the test system is NS1. Briefly: NS1 antigenemia (Platelia NS1 assay) in adult dengue patients, randomized placebo-controlled trial. It counts as in vivo, human. The settings on record: Kaplan-Meier estimate. The method, then:
Randomization to treatment group was by computer-generated randomization sequencing in blocks of 2. Balapiravir was formulated in a 500-mg film-coated tablet. The placebo consisted of an identical looking tablet containing excipient only. All balapiravir and placebo tablets were provided by F. Hoffmann-La Roche. Patients in cohort 1 (n = 20) received 1500 mg of balapiravir or an identical placebo orally every 12 hours for 5 days (10 doses). The decision to dose escalate (to 3000 mg) was made after review of the partially unblinded group mean clinical and laboratory data acquired from patients in cohort 1. Patients in cohort 2 (n = 44) received 3000 mg of balapiravir or placebo orally twice a day for 5 days (10 doses).

The subject of another series is DENV. As to the kind of experiment: Plasma viremia (RT-PCR) in adult dengue patients, randomized placebo-controlled trial. Format: in vivo, human. The settings on record: for Median time to first viremia level of <1000 copies/mL (IQR): Kaplan-Meier estimate, inpatient period; for AUC viremia, Mean / AUC viremia, Median (IQR): hour 0 to hour 168. The method, then: Plasma samples were collected for virological and immunological investigations every 12 hours, beginning immediately before commencement of treatment, during the next 6 study days and on one occasion on study day 7 and day 14 (virological markers) or day 7 and day 28 (immunological markers). Viremia was measured using a validated, internally controlled reverse-transcription polymerase chain reaction assay in a Good Clinical Laboratory Practice environment. The limit of detection was 357 copies/mL for DENV-1, 72 copies/mL for DENV-2, 357 copies/mL for DENV-3, and 720 copies/mL for DENV-4. The presence of NS1 in plasma was determined using the Platelia NS1 assay (Bio-Rad) and was performed according to the manufacturer's instructions. Plasma cytokine levels (interleukin 1β [IL-1β], IL-2, IL-4, IL-5, IL-6, IL-10, IL-12p70, IL-13, interferon γ [IFN-γ], and tumor necrosis factor α [TNF-α]) were measured using a Bio-Plex human cytokine assay (Bio-Rad) and a multiplex array reader (Luminex Systems, Bio-Plex workstation from Bio-Rad Laboratories) according to the manufacturer's instructions. Briefly, 50-μL plasma samples were incubated with monoclonal antibody coupled beads. Complexes were washed twice, then incubated with biotinylated detection antibodies and, finally, labeled with streptavidin-phycoerythrin prior to analysis. Cytokine concentrations in samples were calculated by use of recombinant cytokines as standards and software provided by the manufacturer (Bio-Plex Manager). All research samples (for pharmacology, virology, and immunology) were collected and processed in the laboratory within 1 hour of venupuncture. All virological and immunological measurements and analyses were performed by analysts who were blind to the treatment assignment
Key viremia endpoints of the study were as follows: area under the log-transformed viremia curve (AUC) from first dose to the end of study day 7 (study hour 168), calculated on the basis of the trapezoidal rule with values below the limit of detection replaced by half of the detection limit; time to first viremia level of <1000 copies/mL until study day 7; and time to the first negative NS1 test result. Other predefined key endpoints included fever clearance time, defined as the time from the start of treatment to the start of the first 48-hour period during which axillary temperature remained <37.5°C; maximum hematocrit level; maximum percentage increase of hematocrit level from baseline; platelet count nadir; and lowest recorded quality of life score.
Time to event endpoints were compared between treatment groups on the basis of Cox regression and continuous endpoints on the basis of linear regression. Analyses were adjusted for the predose value of the respective endpoint; viremia and NS1 endpoints were additionally adjusted for dengue serotype. For all endpoints, we report P values of a trend test for a dose-response relationship with treatment entered as a continuous variable with values 0 (placebo), 1 (low-dose), and 2 (high-dose) into the regression model.

The next series has as its system HCV. As to conditions: cited from earlier work.
Setting [3] is: High-dose (3000 mg twice a day, 5 days), n = 22.
Setting [4] is: Low-dose (1500 mg twice a day, 5 days), n = 10.

For `CC(C)C(=O)OC[C@@]1(N=[N+]=[N-])O[C@@H](n2ccc(N)nc2=O)[C@H](OC(=O)C(C)C)[C@@H]1OC(=O)C(C)C` [Balapiravir], the IC50 was 3 ± 0.4 µM in the series with DENV-3 (DENV-3 strain 33/0072 (clinical isolate), Huh-7 cells); 3.4 ± 1.7 µM in the series with DENV-3 (DENV-3 strain 33/0096 (clinical isolate), Huh-7 cells); 3.2 ± 0.9 µM in the series on DENV-3 (DENV-3 strain 33/0177 (clinical isolate), Huh-7 cells); 4.4 ± 0.9 µM in the series with DENV-3 (DENV-3 strain 33/0253 (clinical isolate), Huh-7 cells); 3.7 ± 0.9 µM in the series with DENV-3 (DENV-3 strain H87, Huh-7 cells). For the same compound, in series [1], the “mean Cmin” value is 21 µM. The Cmax in series [1] (read-out: mean Cmax) was 88 µM. For the same compound, the “kinetics of plasma cytokine concentrations and whole blood transcriptional profile” value in series [2] (balapiravir treatment versus placebo) is “not attenuated”. Also, the “treatment-related effects on whole blood gene transcript abundance” value in series [2] (baseline, study days 4 and 28, data not shown) is “no evidence of treatment-related effects”. Besides, the “Median time to first negative NS1 test result (IQR)” value in the series on NS1 (setting [3]) is 4 (3–6) d; in the series on NS1 (setting [4]), 3 (3–14) d. The “effect on virological markers (time to clearance of viremia, time to clearance of NS1 antigenemia, AUC)” value with DENV (1500 mg or 3000 mg twice daily for 5 days versus placebo) is “did not measurably alter; also recorded: no measurable effect”. The “Median time to first viremia level of <1000 copies/mL (IQR)” value in the series on DENV (setting [3]) is recorded as 4 (3–5) d; in the series with DENV (setting [4]) it was 5 (4, NA) d. Besides, the “AUC viremia, Mean” value with DENV (setting [3]) is 32.56 log10 copies/mL × d; in the series with DENV (setting [4]), 34.49 log10 copies/mL × d. The “AUC viremia, Median (IQR)” value was 31.98 (27.60–34.98) log10 copies/mL × d in the series with DENV (setting [3]) and 29.63 (27.41–39.86) log10 copies/mL × d in the series on DENV (setting [4]). Besides, the “antiviral effect (reduction in plasma HCV RNA level)” value in the series on HCV (500 mg twice daily) is given as “no significant antiviral effect”. Besides, in the series on HCV (extended courses (2–3 months) in conjunction with pegylated interferon and ribavirin, HCV infection), the “clinical safety in extended courses” value was “clinical safety signals were detected”. The “effect on plasma HCV levels” value in the series on HCV (monotherapy twice per day for 14 days, chronic HCV) was “reduced plasma HCV levels in a dose- and time-dependent manner”. Moreover, in the series on HCV (monotherapy twice per day for 14 days, doses up to 3000 mg, adult male patients), the tolerability entry is reported as “well-tolerated”.

Source of the values: PMC3610419, “A Randomized, Double-Blind Placebo Controlled Trial of Balapiravir, a Polymerase Inhibitor, in Adult Dengue Patients” (The Journal of Infectious Diseases, 2012).
